pIC50: −log10 of the molar value.
What was measured:
HeLa [1] = experiment: Cytotoxicity against human HeLa cells assessed as reduction in cell viability after 2 hrs in presence of AZD7765 by Alamar blue assay; format: functional, cell-based
NCI-H460 [2] = experiment: Cytotoxicity against human NCI-H460 cells assessed as reduction in cell viability after 2 hrs in presence of AZD7765 by Alamar blue assay; format: functional, cell-based; conditions: NCI-H460, 2 h
HT-29 [3] = experiment: Cytotoxicity against human HT-29 cells assessed as reduction in cell viability after 2 hrs in presence of AZD7765 by Alamar blue assay; format: functional, cell-based; conditions: HT-29, 2 h
DU-145 = experiment: Cytotoxicity against human DU145 cells assessed as reduction in cell viability after 2 hrs in presence of AZD7765 by Alamar blue assay; format: functional, cell-based; conditions: DU-145, 2 h
HeLa [4] = experiment: Cytotoxicity against human HeLa cells assessed as reduction in cell viability after 2 hrs in presence of LY2603618 by Alamar blue assay; format: functional, cell-based
NCI-H460 [5] = experiment: Cytotoxicity against human NCI-H460 cells assessed as reduction in cell viability after 2 hrs in presence of LY2603618 by Alamar blue assay; format: functional, cell-based; conditions: NCI-H460, 2 h
HT-29 [6] = experiment: Cytotoxicity against human HT-29 cells assessed as reduction in cell viability after 2 hrs in presence of LY2603618 by Alamar blue assay; format: functional, cell-based; conditions: HT-29, 2 h
NCI-H460 [7] = experiment: Cytotoxicity against human NCI-H460 cells assessed as reduction in cell viability after 2 hrs in presence of PF477736 by Alamar blue assay; format: functional, cell-based; conditions: NCI-H460, 2 h
HT-29 [8] = experiment: Cytotoxicity against human HT-29 cells assessed as reduction in cell viability after 2 hrs in presence of PF477736 by Alamar blue assay; format: functional, cell-based; conditions: HT-29, 2 h
NCI-H460 [9] = experiment: Cytotoxicity against human NCI-H460 cells assessed as reduction in cell viability after 2 hrs under hypoxic conditions by Alamar blue assay; format: functional, cell-based; conditions: NCI-H460, 2 h
NCI-H460 [10] = experiment: Cytotoxicity against human NCI-H460 cells assessed as reduction in cell viability after 2 hrs under normoxic conditions by Alamar blue assay; format: functional, cell-based; conditions: NCI-H460, 2 h
[11] = Tmax in mouse at 10 mg/kg; format: ADME, organism-based; conditions: in vivo
[12] = Cmax in mouse at 10 mg/kg; format: ADME, organism-based; parameters: dose 10 mg/kg; conditions: in vivo
[13] = Half life in mouse at 10 mg/kg; format: ADME, organism-based; conditions: in vivo
[14] = Clearance in mouse at 10 mg/kg; format: ADME, organism-based; conditions: in vivo

Tmax [11] | Cmax [12] | half-life [13] | clearance [14] | Structure (SMILES) | pIC50 (HeLa [1]) | pIC50 (NCI-H460 [2]) | pIC50 (HT-29 [3]) | pIC50 (DU-145) | pIC50 (HeLa [4]) | pIC50 (NCI-H460 [5]) | pIC50 (HT-29 [6]) | pIC50 (NCI-H460 [7]) | pIC50 (HT-29 [8]) | pIC50 (NCI-H460 [9]) | pIC50 (NCI-H460 [10])
– | – | – | – | Cn1c(COP(=O)(NCCCl)NCCCl)cnc1[N+](=O)[O-] | 1.02 | 1.60 | 1.41 | 1.10 | 1.05 | 1.66 | 1.34 | 1.72 | 1.24 | – | –
5 min | 1820 ng/mL | 28.8 min | 188 mL/min/kg | COc1cccc2c1C(=O)c1c(O)c3c(c(O)c1C2=O)C[C@@](O)(C(C)=O)C[C@@H]3O[C@H]1C[C@H](NCOCCn2ccnc2[N+](=O)[O-])[C@H](O)[C@H](C)O1 | – | – | – | – | – | – | – | – | – | 7.64 | 5.01

From ChEMBL document CHEMBL4316582, “Nitro-Group-Containing Drugs” (J Med Chem, 2019)
